“And” between values parts separate entries of the source, which are not always exact repeats. Identical values can stand only once. Inconclusive results and toxic doses are left out.
System: L1210 leukemia ip in BDF1 mice, survival T/C
Test: NCI In Vivo Anticancer Drug Screen. Data for tumor model L1210 Leukemia (intraperitoneal) in B6D2F1 (BDF1) mice
Conditions: endpoint: mean survival time, higher = longer survival
In short: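 Mice bearing the transplanted tumor received compound or vehicle. Survival of the treated group was divided by that of the vehicle-treated control group to give the ratio.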

[1] = dose: 100.0 mg/kg/injection, schedule: Q01DX001 (ip), vehicle: saline
[2] = dose: 100.0 mg/kg/injection, schedule: Q04DX002 (ip), vehicle: Klucel (hydroxypropylcellulose) (HPC)
[3] = dose: 200.0 mg/kg/injection, schedule: Q01DX001 (ip), vehicle: saline
[4] = dose: 200.0 mg/kg/injection, schedule: Q04DX002 (ip), vehicle: Klucel (hydroxypropylcellulose) (HPC)
[5] = dose: 400.0 mg/kg/injection, schedule: Q01DX001 (ip), vehicle: saline
[6] = dose: 100.0 mg/kg/injection, schedule: Q01DX001 (ip), vehicle: Klucel (hydroxypropylcellulose) (HPC)
[7] = dose: 100.0 mg/kg/injection, schedule: Q04DX003 (ip), vehicle: Klucel (hydroxypropylcellulose) (HPC)
[8] = dose: 200.0 mg/kg/injection, schedule: Q01DX001 (ip), vehicle: Klucel (hydroxypropylcellulose) (HPC)
[9] = dose: 200.0 mg/kg/injection, schedule: Q04DX003 (ip), vehicle: Klucel (hydroxypropylcellulose) (HPC)
[10] = dose: 400.0 mg/kg/injection, schedule: Q01DX001 (ip), vehicle: Klucel (hydroxypropylcellulose) (HPC)
[11] = dose: 400.0 mg/kg/injection, schedule: Q04DX003 (ip), vehicle: Klucel (hydroxypropylcellulose) (HPC)

Question: What does the source list for OC1OCC(Cc2ccc3c(c2)OCO3)C1Cc1ccc2c(c1)OCO2 (stereo not drawn)?
Answer: T/C (dose: 100.0 mg/kg/injection, schedule: Q01DX009 (ip), vehicle: saline): 91 % of control; T/C (dose: 200.0 mg/kg/injection, schedule: Q01DX009 (ip), vehicle: saline): 99 % of control; T/C (dose: 400.0 mg/kg/injection, schedule: Q01DX009 (ip), vehicle: saline): 88 % of control

Question: How did the T/C (dose: 50.0 mg/kg/injection, schedule: Q01DX001 (ip), vehicle: saline) turn out when CC(=O)CCc1ccc(Cl)cc1 was run?
Answer: 101 % of control

Question: And the T/C [1]?
Answer: 107 % of control

Question: And the T/C [2]?
Answer: 105 % of control

Question: And the T/C [3]?
Answer: 107 % of control

Question: What about the T/C [4] of the same molecule?
Answer: 105 % of control

Question: And the T/C [5]?
Answer: 106 % of control

Question: What about the T/C (dose: 400.0 mg/kg/injection, schedule: Q04DX002 (ip), vehicle: Klucel (hydroxypropylcellulose) (HPC)) of the same molecule?
Answer: 105 % of control

Question: How did the T/C [1] turn out when CC(=O)ONC(NOC(C)=O)N[N+](=O)[O-] was run?
Answer: 103 % of control

Question: What about the T/C [3] of the same molecule?
Answer: 98 % of control

Question: What about the T/C [5] of the same molecule?
Answer: 102 % of control

Question: For COc1ccc2c(c1)c1c(C)c3cnccc3c(C)c1n2CCOC(C)=O, which T/C (dose: 12.5 mg/kg/injection, schedule: Q01DX009 (ip), vehicle: saline) is on record?
Answer: 107 % of control

Question: What about the T/C (dose: 25.0 mg/kg/injection, schedule: Q01DX009 (ip), vehicle: saline) of the same molecule?
Answer: 100 % of control

Question: And the T/C (dose: 50.0 mg/kg/injection, schedule: Q01DX009 (ip), vehicle: saline)?
Answer: 112 % of control

Question: What about the T/C (dose: 100.0 mg/kg/injection, schedule: Q01DX001 (ip), vehicle: saline with Tween-80) of the same molecule?
Answer: 88 % of control

Question: What about the T/C (dose: 200.0 mg/kg/injection, schedule: Q01DX001 (ip), vehicle: saline with Tween-80) of the same molecule?
Answer: 100 % of control

Question: What about the T/C (dose: 400.0 mg/kg/injection, schedule: Q01DX001 (ip), vehicle: saline with Tween-80) of the same molecule?
Answer: 120 % of control

Question: What does the source list for O=C(O)c1cc(Br)cc(Cl)c1Br?
Answer: T/C [2]: 96 % of control; T/C [4]: 96 % of control

Question: O=C1NC(=O)C(c2ccccc2Cl)N1 (stereo not drawn) was tested. Which T/C [6] did it give?
Answer: 109 % of control

Question: What about the T/C [7] of the same molecule?
Answer: 102 % of control

Question: What about the T/C [8] of the same molecule?
Answer: 118 % of control

Question: And the T/C [9]?
Answer: 100 % of control

Question: What about the T/C [10] of the same molecule?
Answer: 103 % of control

Question: What about the T/C [11] of the same molecule?
Answer: 98 % of control

Question: Which T/C (dose: 8.0 mg/kg/injection, schedule: Q01DX001 (ip), vehicle: carboxymethylcellulose (CMC)) does the source give for O=NN(CC(F)(F)F)C(=O)NCC(F)(F)F here?
Answer: 113 % of control

Question: What about the T/C (dose: 16.0 mg/kg/injection, schedule: Q01DX001 (ip), vehicle: carboxymethylcellulose (CMC)) of the same molecule?
Answer: 113 % of control

Question: What about the T/C (dose: 31.0 mg/kg/injection, schedule: Q01DX001 (ip), vehicle: carboxymethylcellulose (CMC)) of the same molecule?
Answer: 113 % of control

Question: What about the T/C (dose: 62.0 mg/kg/injection, schedule: Q01DX001 (ip), vehicle: carboxymethylcellulose (CMC)) of the same molecule?
Answer: 113 % of control

Question: What about the T/C (dose: 125.0 mg/kg/injection, schedule: Q01DX001 (ip), vehicle: carboxymethylcellulose (CMC)) of the same molecule?
Answer: 113 % of control

Question: What about the T/C (dose: 187.0 mg/kg/injection, schedule: Q01DX001 (ip), vehicle: carboxymethylcellulose (CMC)) of the same molecule?
Answer: 112 % of control

Question: What about the T/C (dose: 250.0 mg/kg/injection, schedule: Q01DX001 (ip), vehicle: carboxymethylcellulose (CMC)) of the same molecule?
Answer: 107 % of control

Question: And the T/C (dose: 375.0 mg/kg/injection, schedule: Q01DX001 (ip), vehicle: carboxymethylcellulose (CMC))?
Answer: 113 % of control

Question: And the T/C (dose: 500.0 mg/kg/injection, schedule: Q01DX001 (ip), vehicle: carboxymethylcellulose (CMC))?
Answer: 118 % of control

Question: For COC(=O)C1CC(=O)c2c(O)ccc(O)c2C1 (stereo not drawn), which T/C (dose: 12.5 mg/kg/injection, schedule: Q04DX003 (ip), vehicle: Klucel (hydroxypropylcellulose) (HPC)) is on record?
Answer: 96 % of control

Question: And the T/C (dose: 25.0 mg/kg/injection, schedule: Q04DX003 (ip), vehicle: Klucel (hydroxypropylcellulose) (HPC))?
Answer: 104 % of control

Question: What about the T/C (dose: 50.0 mg/kg/injection, schedule: Q04DX003 (ip), vehicle: Klucel (hydroxypropylcellulose) (HPC)) of the same molecule?
Answer: 98 % of control

Question: And the T/C [6]?
Answer: 92 % of control

Question: What about the T/C [7] of the same molecule?
Answer: 100 % of control

Question: What about the T/C [8] of the same molecule?
Answer: 92 % of control

Question: And the T/C [9]?
Answer: 101 % of control

Question: What about the T/C [10] of the same molecule?
Answer: 90 % of control

Question: What about the T/C [11] of the same molecule?
Answer: 106 % of control

Question: With Fc1c(F)c(F)c(Oc2c(F)c(F)c(P(c3c(F)c(F)c(Oc4c(F)c(F)c(F)c(F)c4F)c(F)c3F)c3c(F)c(F)c(Oc4c(F)c(F)c(F)c(F)c4F)c(F)c3F)c(F)c2F)c(F)c1F as the molecule, how does the T/C (dose: 75.0 mg/kg/injection, schedule: Q04DX003 (ip), vehicle: Klucel (hydroxypropylcellulose) (HPC)) read?
Answer: 104 % of control

Question: What about the T/C (dose: 150.0 mg/kg/injection, schedule: Q04DX003 (ip), vehicle: Klucel (hydroxypropylcellulose) (HPC)) of the same molecule?
Answer: 91 % of control

Question: What about the T/C (dose: 300.0 mg/kg/injection, schedule: Q04DX003 (ip), vehicle: Klucel (hydroxypropylcellulose) (HPC)) of the same molecule?
Answer: 90 % of control

Question: How did the T/C (dose: 25.0 mg/kg/injection, schedule: Q01DX009 (ip), vehicle: Klucel (hydroxypropylcellulose) (HPC)) turn out when CC(C)c1ccc(C(=O)C2CC2)cc1 was run?
Answer: 93 % of control

Question: And the T/C (dose: 50.0 mg/kg/injection, schedule: Q01DX009 (ip), vehicle: Klucel (hydroxypropylcellulose) (HPC))?
Answer: 101 % of control

Question: What about the T/C (dose: 100.0 mg/kg/injection, schedule: Q01DX009 (ip), vehicle: Klucel (hydroxypropylcellulose) (HPC)) of the same molecule?
Answer: 93 % of control and 91 % of control

Question: What about the T/C [7] of the same molecule?
Answer: 96 % of control

Question: And the T/C [9]?
Answer: 96 % of control

Question: And the T/C [11]?
Answer: 94 % of control

Question: What does the source list for NC(CSCc1ccc(N(CCCl)CCCl)cc1)C(=O)O (stereo not drawn)?
Answer: T/C (dose: 2.5 mg/kg/injection, schedule: Q01DX Z (ip), vehicle: carboxymethylcellulose (CMC)): 124 % of control; T/C (dose: 4.0 mg/kg/injection, schedule: Q01DX Z (ip), vehicle: other): 112 % of control; T/C (dose: 7.0 mg/kg/injection, schedule: Q01DX009 (ip), vehicle: saline): 109 % of control; T/C (dose: 7.0 mg/kg/injection, schedule: Q01DX Z (ip), vehicle: saline): 111 % of control; T/C (dose: 10.0 mg/kg/injection, schedule: Q01DX001 (ip), vehicle: carboxymethylcellulose (CMC)): 87 % of control; T/C (dose: 10.0 mg/kg/injection, schedule: Q01DX Z (ip), vehicle: carboxymethylcellulose (CMC)): 157 % of control; T/C (dose: 11.0 mg/kg/injection, schedule: Q01DX009 (ip), vehicle: saline): 103 % of control; T/C (dose: 11.0 mg/kg/injection, schedule: Q01DX Z (ip), vehicle: saline): 118 % of control; T/C (dose: 16.0 mg/kg/injection, schedule: Q01DX009 (ip), vehicle: saline): 111 % of control; T/C (dose: 16.0 mg/kg/injection, schedule: Q01DX Z (ip), vehicle: saline): 114 % of control; T/C (dose: 20.0 mg/kg/injection, schedule: Q01DX Z (ip), vehicle: carboxymethylcellulose (CMC)): 152 % of control and 168 % of control; T/C (dose: 24.0 mg/kg/injection, schedule: Q01DX009 (ip), vehicle: saline): 103 % of control; T/C (dose: 24.0 mg/kg/injection, schedule: Q01DX Z (ip), vehicle: saline): 124 % of control; T/C (dose: 30.0 mg/kg/injection, schedule: Q01DX Z (ip), vehicle: other): 123 % of control; T/C (dose: 32.0 mg/kg/injection, schedule: Q01DX009 (ip), vehicle: saline): 113 % of control; T/C (dose: 40.0 mg/kg/injection, schedule: Q01DX001 (ip), vehicle: carboxymethylcellulose (CMC)): 95 % of control; T/C (dose: 40.0 mg/kg/injection, schedule: Q01DX Z (ip), vehicle: carboxymethylcellulose (CMC)): 100 % of control; T/C (dose: 80.0 mg/kg/injection, schedule: Q01DX001 (ip), vehicle: carboxymethylcellulose (CMC)): 91 % of control

Question: Which T/C (dose: 75.0 mg/kg/injection, schedule: Q01DX001 (ip), vehicle: saline) does the source give for Clc1ccc2c(Cl)cc(Cl)nc2c1 here?
Answer: 92 % of control

Question: What about the T/C (dose: 300.0 mg/kg/injection, schedule: Q01DX001 (ip), vehicle: saline) of the same molecule?
Answer: 87 % of control

Question: What does the source list for CCOC(=O)C(CC)C(O)c1cccc(OC)c1 (stereo not drawn)?
Answer: T/C (dose: 50.0 mg/kg/injection, schedule: Q01DX009 (ip), vehicle: saline with Tween-80): 94 % of control; T/C (dose: 100.0 mg/kg/injection, schedule: Q01DX009 (ip), vehicle: saline with Tween-80): 94 % of control; T/C (dose: 200.0 mg/kg/injection, schedule: Q01DX009 (ip), vehicle: saline with Tween-80): 94 % of control

Question: Which results are given for O=C(O)c1sccc1-c1cccc2ccccc12?
Answer: T/C (dose: 50.0 mg/kg/injection, schedule: Q01DX001 (ip), vehicle: Klucel (hydroxypropylcellulose) (HPC)): 94 % of control; T/C [6]: 96 % of control; T/C [8]: 94 % of control

Question: With CCCOc1ccc(C2=C(c3ccccc3)C(=O)C(c3ccccc3)=C2c2ccccc2)cc1 as the molecule, how does the T/C (dose: 100.0 mg/kg/injection, schedule: Q01DX001 (ip), vehicle: carboxymethylcellulose (CMC)) read?
Answer: 94 % of control

Question: What about the T/C (dose: 200.0 mg/kg/injection, schedule: Q01DX001 (ip), vehicle: carboxymethylcellulose (CMC)) of the same molecule?
Answer: 100 % of control

Question: And the T/C (dose: 400.0 mg/kg/injection, schedule: Q01DX001 (ip), vehicle: carboxymethylcellulose (CMC))?
Answer: 94 % of control

Question: N#CC(C#N)=C/C=C/c1cccc([N+](=O)[O-])c1 was tested. Which T/C (dose: 38.0 mg/kg/injection, schedule: Q01DX009 (ip), vehicle: saline) did it give?
Answer: 102 % of control

Question: Which results are given for Cc1nnc(NC(=O)NCCCl)s1?
Answer: T/C [7]: 100 % of control; T/C [9]: 107 % of control; T/C [11]: 118 % of control

Question: For CC1=CC(=O)C=CC1=O, which T/C (dose: 5.0 mg/kg/injection, schedule: Q01DX001 (ip), vehicle: saline) is on record?
Answer: 107 % of control

— PubChem BioAssay AID248 (DTP/NCI, 2004)
